Data reported in ChEMBL document CHEMBL4138146, “A Schmidt rearrangement-mediated synthesis of novel tetrahydro-benzo[1,4]diazepin-5-ones as potential anticancer and antiprotozoal agents” (Eur J Med Chem, 2017).

system: UO-31; test: Growth inhibition of human UO31 cells assessed as cell growth at 10 uM incubated for 48 hrs by sulforhodamine B assay relative to control; assay type: functional; conditions: UO-31, 48 h, read-out: Activity

| SMILES | growth at 10 µM |
| --- | --- |
| CCCCOc1nc2c(C)cccc2cc1C1CNC(=O)c2ccccc2N1 (stereo not drawn) | 67.8% |

system: U-251; test: Growth inhibition of human U251 cells assessed as cell growth at 10 uM incubated for 48 hrs by sulforhodamine B assay relative to control; assay type: functional; conditions: U-251, 48 h, read-out: Activity

| SMILES | growth at 10 µM |
| --- | --- |
| CCCCOc1nc2c(C)cccc2cc1C1CNC(=O)c2ccccc2N1 (stereo not drawn) | 63.7% |

system: CCRF-CEM; test: Growth inhibition of human CCRF-CEM cells assessed as cell growth at 10 uM incubated for 48 hrs by sulforhodamine B assay relative to control; assay type: functional; conditions: read-out: Activity

| SMILES | growth at 10 µM |
| --- | --- |
| CCCCOc1nc2c(C)cccc2cc1C1CNC(=O)c2ccccc2N1 (stereo not drawn) | 34.3% |

system: SF-539; test: Growth inhibition of human SF539 cells assessed as cell growth at 10 uM incubated for 48 hrs by sulforhodamine B assay relative to control; assay type: functional; conditions: SF-539, 48 h, read-out: Activity

| SMILES | growth at 10 µM |
| --- | --- |
| CCCCOc1nc2c(C)cccc2cc1C1CNC(=O)c2ccccc2N1 (stereo not drawn) | 68.3% |

system: SN12C; test: Growth inhibition of human SN12C cells assessed as cell growth at 10 uM incubated for 48 hrs by sulforhodamine B assay relative to control; assay type: functional; conditions: read-out: Activity

| SMILES | growth at 10 µM |
| --- | --- |
| CCCCOc1nc2c(C)cccc2cc1C1CNC(=O)c2ccccc2N1 (stereo not drawn) | 70.9% |

system: T47D; test: Growth inhibition of human T47D cells assessed as cell growth at 10 uM incubated for 48 hrs by sulforhodamine B assay relative to control; assay type: functional; conditions: read-out: Activity

| SMILES | growth at 10 µM |
| --- | --- |
| CCCCOc1nc2c(C)cccc2cc1C1CNC(=O)c2ccccc2N1 (stereo not drawn) | 58.4% |

system: A549; test: Growth inhibition of human A549/ATCC cells assessed as cell growth at 10 uM incubated for 48 hrs by sulforhodamine B assay relative to control; assay type: functional; conditions: A549, 48 h, read-out: Activity

| SMILES | growth at 10 µM |
| --- | --- |
| CCCCOc1nc2c(C)cccc2cc1C1CNC(=O)c2ccccc2N1 (stereo not drawn) | 60% |

system: Malme-3M; test: Growth inhibition of human MALME-3M cells assessed as cell growth at 10 uM incubated for 48 hrs by sulforhodamine B assay relative to control; assay type: functional; conditions: read-out: Activity

| SMILES | growth at 10 µM |
| --- | --- |
| CCCCOc1nc2c(C)cccc2cc1C1CNC(=O)c2ccccc2N1 (stereo not drawn) | 86.1% |

system: OVCAR-3; test: Growth inhibition of human OVCAR3 cells assessed as cell growth at 10 uM incubated for 48 hrs by sulforhodamine B assay relative to control; assay type: functional; conditions: OVCAR-3, 48 h, read-out: Activity

| SMILES | growth at 10 µM |
| --- | --- |
| CCCCOc1nc2c(C)cccc2cc1C1CNC(=O)c2ccccc2N1 (stereo not drawn) | 20% |

system: A498; test: Growth inhibition of human A498 cells assessed as cell growth at 10 uM incubated for 48 hrs by sulforhodamine B assay relative to control; assay type: functional; conditions: A498, 48 h, read-out: Activity

| SMILES | growth at 10 µM |
| --- | --- |
| CCCCOc1nc2c(C)cccc2cc1C1CNC(=O)c2ccccc2N1 (stereo not drawn) | 55.3% |

system: HCT-116; test: Growth inhibition of human HCT116 cells assessed as cell growth at 10 uM incubated for 48 hrs by sulforhodamine B assay relative to control; assay type: functional; conditions: HCT-116, 48 h, read-out: Activity

| SMILES | growth at 10 µM |
| --- | --- |
| CCCCOc1nc2c(C)cccc2cc1C1CNC(=O)c2ccccc2N1 (stereo not drawn) | 45.9% |

system: SW-620; test: Growth inhibition of human SW620 cells assessed as cell growth at 10 uM incubated for 48 hrs by sulforhodamine B assay relative to control; assay type: functional; conditions: SW-620, 48 h, read-out: Activity

| SMILES | growth at 10 µM |
| --- | --- |
| CCCCOc1nc2c(C)cccc2cc1C1CNC(=O)c2ccccc2N1 (stereo not drawn) | 42.3% |

system: NCI-H522; test: Growth inhibition of human NCI-H522 cells assessed as cell growth at 10 uM incubated for 48 hrs by sulforhodamine B assay relative to control; assay type: functional; conditions: NCI-H522, 48 h, read-out: Activity

| SMILES | growth at 10 µM |
| --- | --- |
| CCCCOc1nc2c(C)cccc2cc1C1CNC(=O)c2ccccc2N1 (stereo not drawn) | 44.8% |

system: NCI-H226; test: Growth inhibition of human NCI-H226 cells assessed as cell growth at 10 uM incubated for 48 hrs by sulforhodamine B assay relative to control; assay type: functional; conditions: NCI-H226, 48 h, read-out: Activity

| SMILES | growth at 10 µM |
| --- | --- |
| CCCCOc1nc2c(C)cccc2cc1C1CNC(=O)c2ccccc2N1 (stereo not drawn) | 89% |

system: TK-10; test: Growth inhibition of human TK10 cells assessed as cell growth at 10 uM incubated for 48 hrs by sulforhodamine B assay relative to control; assay type: functional; conditions: TK-10, 48 h, read-out: Activity

| SMILES | growth at 10 µM |
| --- | --- |
| CCCCOc1nc2c(C)cccc2cc1C1CNC(=O)c2ccccc2N1 (stereo not drawn) | 98.7% |

system: NCI-H322M; test: Growth inhibition of human NCI-H322M cells assessed as cell growth at 10 uM incubated for 48 hrs by sulforhodamine B assay relative to control; assay type: functional; conditions: read-out: Activity

| SMILES | growth at 10 µM |
| --- | --- |
| CCCCOc1nc2c(C)cccc2cc1C1CNC(=O)c2ccccc2N1 (stereo not drawn) | 105% |

system: ACHN; test: Growth inhibition of human ACHN cells assessed as cell growth at 10 uM incubated for 48 hrs by sulforhodamine B assay relative to control; assay type: functional; conditions: read-out: Activity

| SMILES | growth at 10 µM |
| --- | --- |
| CCCCOc1nc2c(C)cccc2cc1C1CNC(=O)c2ccccc2N1 (stereo not drawn) | 66.3% |

system: RXF 393; test: Growth inhibition of human RXF393 cells assessed as cell growth at 10 uM incubated for 48 hrs by sulforhodamine B assay relative to control; assay type: functional; conditions: RXF 393, 48 h, read-out: Activity

| SMILES | growth at 10 µM |
| --- | --- |
| CCCCOc1nc2c(C)cccc2cc1C1CNC(=O)c2ccccc2N1 (stereo not drawn) | 78.3% |

system: KM12; test: Growth inhibition of human KM12 cells assessed as cell growth at 10 uM incubated for 48 hrs by sulforhodamine B assay relative to control; assay type: functional; conditions: KM12, 48 h, read-out: Activity

| SMILES | growth at 10 µM |
| --- | --- |
| CCCCOc1nc2c(C)cccc2cc1C1CNC(=O)c2ccccc2N1 (stereo not drawn) | 56.4% |

system: OVCAR-5; test: Growth inhibition of human OVCAR5 cells assessed as cell growth at 10 uM incubated for 48 hrs by sulforhodamine B assay relative to control; assay type: functional; conditions: OVCAR-5, 48 h, read-out: Activity

| SMILES | growth at 10 µM |
| --- | --- |
| CCCCOc1nc2c(C)cccc2cc1C1CNC(=O)c2ccccc2N1 (stereo not drawn) | 112% |

system: NCI/ADR-RES; test: Growth inhibition of human NCI/ADR-RES cells assessed as cell growth at 10 uM incubated for 48 hrs by sulforhodamine B assay relative to control; assay type: functional; conditions: read-out: Activity

| SMILES | growth at 10 µM |
| --- | --- |
| CCCCOc1nc2c(C)cccc2cc1C1CNC(=O)c2ccccc2N1 (stereo not drawn) | 51.3% |

system: COLO 205; test: Growth inhibition of human COLO205 cells assessed as cell growth at 10 uM incubated for 48 hrs by sulforhodamine B assay relative to control; assay type: functional; conditions: COLO 205, 48 h, read-out: Activity

| SMILES | growth at 10 µM |
| --- | --- |
| CCCCOc1nc2c(C)cccc2cc1C1CNC(=O)c2ccccc2N1 (stereo not drawn) | 90.8% |

system: SK-MEL-28; test: Growth inhibition of human SK-MEL-28 cells assessed as cell growth at 10 uM incubated for 48 hrs by sulforhodamine B assay relative to control; assay type: functional; conditions: SK-MEL-28, 48 h, read-out: Activity

| SMILES | growth at 10 µM |
| --- | --- |
| CCCCOc1nc2c(C)cccc2cc1C1CNC(=O)c2ccccc2N1 (stereo not drawn) | 66.4% |

system: SK-OV-3; test: Growth inhibition of human SKOV3 cells assessed as cell growth at 10 uM incubated for 48 hrs by sulforhodamine B assay relative to control; assay type: functional; conditions: SK-OV-3, 48 h, read-out: Activity

| SMILES | growth at 10 µM |
| --- | --- |
| CCCCOc1nc2c(C)cccc2cc1C1CNC(=O)c2ccccc2N1 (stereo not drawn) | 69.2% |

system: UACC-62; test: Growth inhibition of human UACC62 cells assessed as cell growth at 10 uM incubated for 48 hrs by sulforhodamine B assay relative to control; assay type: functional; conditions: UACC-62, 48 h, read-out: Activity

| SMILES | growth at 10 µM |
| --- | --- |
| CCCCOc1nc2c(C)cccc2cc1C1CNC(=O)c2ccccc2N1 (stereo not drawn) | 29.1% |

system: SNB-19; test: Growth inhibition of human SNB19 cells assessed as cell growth at 10 uM incubated for 48 hrs by sulforhodamine B assay relative to control; assay type: functional; conditions: SNB-19, 48 h, read-out: Activity

| SMILES | growth at 10 µM |
| --- | --- |
| CCCCOc1nc2c(C)cccc2cc1C1CNC(=O)c2ccccc2N1 (stereo not drawn) | 47% |

system: OVCAR-8; test: Growth inhibition of human OVCAR8 cells assessed as cell growth at 10 uM incubated for 48 hrs by sulforhodamine B assay relative to control; assay type: functional; conditions: OVCAR-8, 48 h, read-out: Activity

| SMILES | growth at 10 µM |
| --- | --- |
| CCCCOc1nc2c(C)cccc2cc1C1CNC(=O)c2ccccc2N1 (stereo not drawn) | 81.2% |

system: HOP-92; test: Growth inhibition of human HOP92 cells assessed as cell growth at 10 uM incubated for 48 hrs by sulforhodamine B assay relative to control; assay type: functional; conditions: HOP-92, 48 h, read-out: Activity

| SMILES | growth at 10 µM |
| --- | --- |
| CCCCOc1nc2c(C)cccc2cc1C1CNC(=O)c2ccccc2N1 (stereo not drawn) | 62.6% |

system: HT-29; test: Growth inhibition of human HT-29 cells assessed as cell growth at 10 uM incubated for 48 hrs by sulforhodamine B assay relative to control; assay type: functional; conditions: HT-29, 48 h, read-out: Activity

| SMILES | growth at 10 µM |
| --- | --- |
| CCCCOc1nc2c(C)cccc2cc1C1CNC(=O)c2ccccc2N1 (stereo not drawn) | 61.4% |

system: HOP-62; test: Growth inhibition of human HOP62 cells assessed as cell growth at 10 uM incubated for 48 hrs by sulforhodamine B assay relative to control; assay type: functional; conditions: HOP-62, 48 h, read-out: Activity

| SMILES | growth at 10 µM |
| --- | --- |
| CCCCOc1nc2c(C)cccc2cc1C1CNC(=O)c2ccccc2N1 (stereo not drawn) | 56.2% |

system: MDA-MB-468; test: Growth inhibition of human MDA-MB-468 cells assessed as cell growth at 10 uM incubated for 48 hrs by sulforhodamine B assay relative to control; assay type: functional; conditions: MDA-MB-468, 48 h, read-out: Activity

| SMILES | growth at 10 µM |
| --- | --- |
| CCCCOc1nc2c(C)cccc2cc1C1CNC(=O)c2ccccc2N1 (stereo not drawn) | 51.6% |

system: OVCAR-4; test: Growth inhibition of human OVCAR4 cells assessed as cell growth at 10 uM incubated for 48 hrs by sulforhodamine B assay relative to control; assay type: functional; conditions: OVCAR-4, 48 h, read-out: Activity

| SMILES | growth at 10 µM |
| --- | --- |
| CCCCOc1nc2c(C)cccc2cc1C1CNC(=O)c2ccccc2N1 (stereo not drawn) | 71.7% |

system: NCI-H23; test: Growth inhibition of human NCI-H23 cells assessed as cell growth at 10 uM incubated for 48 hrs by sulforhodamine B assay relative to control; assay type: functional; conditions: NCI-H23, 48 h, read-out: Activity

| SMILES | growth at 10 µM |
| --- | --- |
| CCCCOc1nc2c(C)cccc2cc1C1CNC(=O)c2ccccc2N1 (stereo not drawn) | 80% |
